Patent US20140107109A1, “AMINO-DIHYDROTHIAZINE AND AMINO-DIOXIDO DIHYDROTHIAZINE COMPOUNDS AS BETA-SECRETASE ANTAGONISTS AND METHODS OF USE” (Amgen Inc., priority 2012, published 2014)

What was measured:
[1] = target: Beta Secretase enzyme (BACE1) (Homo sapiens, UniProt P56817); test: In vitro enzymatic BACE FRET assay; assay type: biochemical; conditions: average IC50, enzyme assay; read-out: BACE1 FRET assay IC50
In short: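 BACE1 cleavage of a 50 nM fluorophore/quencher peptide FRET substrate ran for one hour in 0.05 M acetate pH 4.2, 10% DMSO, 100 uM genapol. Tris buffer raised pH to neutrality to stop the reaction before fluorescence was read (excitation 488 nm, […]).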

[2] = tested on: Aβ40 in conditioned medium of cells stably expressing Amyloid Precursor Protein (APP); test: In vitro BACE cell-based assay (HEK cell assay), Aβ40 sandwich ELISA; conditions: Homo sapiens, HEK293; average IC50, HEK cell assay
In short: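 APP-stably expressing cells (40K/well, grown 24 h in DMEM/10% FBS) were treated 24 h with compounds in 10-point dose response starting at 100 μM or 10 μM, 0.1% DMSO final. Secreted Aβ40 was measured by sandwich ELISA (pAb40 capture, biotinylated 6E10 detection, europium time-resolved fluorescence); IC50 from percent inhibition.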

Cathepsin D (Cat D) = target: T1, Cathepsin D (Cat D) (Homo sapiens, UniProt P07339); test: In vitro enzymatic Cathepsin D (Cat D) FRET assay; assay type: biochemical; conditions: read-out: CatD IC50
T1 construct: Recombinant Cat D was expressed in CHO cells; made in house; host or cells: CHO cells
In short: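 Recombinant Cat D expressed in CHO cells, used at 9 nM and pre-incubated one hour with serially diluted inhibitor in DMSO. Peptide substrate carries a fluorophore and quencher flanking the cleavage site; reaction stopped with Tris buffer raising pH to neutrality, then fluorescence read.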

Beta Secretase enzyme (BACE1), sequence (P56817 46-501): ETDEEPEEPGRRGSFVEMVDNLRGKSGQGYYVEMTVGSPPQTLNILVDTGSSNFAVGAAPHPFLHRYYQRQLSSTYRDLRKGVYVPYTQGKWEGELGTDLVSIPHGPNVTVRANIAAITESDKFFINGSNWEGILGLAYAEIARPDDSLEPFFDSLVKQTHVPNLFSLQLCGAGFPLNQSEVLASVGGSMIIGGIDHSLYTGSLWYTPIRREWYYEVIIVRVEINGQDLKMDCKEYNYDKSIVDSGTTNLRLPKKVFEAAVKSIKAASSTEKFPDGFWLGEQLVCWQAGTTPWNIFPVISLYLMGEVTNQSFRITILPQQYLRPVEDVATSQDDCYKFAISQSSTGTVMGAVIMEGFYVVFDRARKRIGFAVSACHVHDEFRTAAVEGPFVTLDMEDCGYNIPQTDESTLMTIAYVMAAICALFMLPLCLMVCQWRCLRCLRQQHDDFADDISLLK
T1 sequence (P07339 65-412, species assumed): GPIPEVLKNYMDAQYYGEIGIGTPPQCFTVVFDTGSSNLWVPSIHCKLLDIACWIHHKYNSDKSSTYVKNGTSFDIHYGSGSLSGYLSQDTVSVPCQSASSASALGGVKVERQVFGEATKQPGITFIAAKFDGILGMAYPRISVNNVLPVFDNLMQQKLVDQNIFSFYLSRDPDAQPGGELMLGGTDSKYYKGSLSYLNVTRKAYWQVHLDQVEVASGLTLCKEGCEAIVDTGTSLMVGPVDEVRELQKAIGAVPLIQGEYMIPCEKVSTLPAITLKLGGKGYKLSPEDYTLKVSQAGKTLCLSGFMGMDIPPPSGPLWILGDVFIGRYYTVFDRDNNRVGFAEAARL

Compound | IC50 [1] | IC50 [2] | IC50 (Cathepsin D (Cat D))
CC1(C)C(N)=N[C@](C)(c2cc(NC(=O)c3cnc(OCC(F)(F)F)cn3)ccc2F)CS1(=O)=O [Example 346, N-(3-((3R)-5-amino-3,6,6-trimethyl-1,1-dioxido-3,6-dihydro-2H-1,4-thiazin-3-yl)-4-fluorophenyl)-5-(2,2,2-trifluoroethoxy)-2-pyrazinecarboxamide] | 0.00045 µM | 0.0014 µM | > 400 µM
Cc1cc(Cl)cnc1C(=O)Nc1cnc(F)c([C@]2(C)CS(=O)(=O)C(C)(C)C(N)=N2)c1 [Example 347, N-(5-((3R)-5-amino-3,6,6-trimethyl-1,1-dioxido-3,6-dihydro-2H-1,4-thiazin-3-yl)-6-fluoro-3-pyridinyl)-5-chloro-3-methyl-2-pyridinecarboxamide] | 0.0011 µM | 0.0018 µM | 71 µM
CC1(C)C(N)=N[C@](C)(c2cc(NC(=O)c3ncc(C(F)F)cc3Cl)cnc2F)CS1(=O)=O [Example 348, N-(5-((3R)-5-amino-3,6,6-trimethyl-1,1-dioxido-3,6-dihydro-2H-1,4-thiazin-3-yl)-6-fluoro-3-pyridinyl)-3-chloro-5-(difluoromethyl)-2-pyridinecarboxamide] | 0.00589 µM | 0.00992 µM | 490 µM
CC#CCOc1cnc(C(=O)Nc2cnc(F)c([C@]3(C)CS(=O)(=O)C4(CCC4)C(N)=N3)c2)c(C)c1 [Example 349, N-(5-((7R)-9-amino-7-methyl-5,5-dioxido-5-thia-8-azaspiro[3.5]non-8-en-7-yl)-6-fluoro-3-pyridinyl)-5-(2-butyn-1-yloxy)-3-methyl-2-pyridinecarboxamide] | 0.00078 µM | 0.0013 µM | 196 µM
Cc1cc(OCC(F)(F)F)cnc1C(=O)Nc1cnc(F)c([C@]2(C)CS(=O)(=O)C3(CCC3)C(N)=N2)c1 [Example 350, N-(5-((7R)-9-amino-7-methyl-5,5-dioxido-5-thia-8-azaspiro[3.5]non-8-en-7-yl)-6-fluoro-3-pyridinyl)-3-methyl-5-(2,2,2-trifluoroethoxy)-2-pyridinecarboxamide] | 0.00606 µM | 0.0345 µM | > 400 µM
COCc1cc(Cl)cnc1C(=O)Nc1ccc(F)c([C@]2(C)CS(=O)(=O)C(C)(C)C(N)=N2)c1 [Example 351, N-(3-((3R)-5-amino-3,6,6-trimethyl-1,1-dioxido-3,6-dihydro-2H-1,4-thiazin-3-yl)-4-fluorophenyl)-5-chloro-3-(methoxymethyl)-2-pyridinecarboxamide] | 0.00052 µM | 0.0027 µM | > 14.8 µM
CC1(C)C(N)=N[C@](C)(c2cc(NC(=O)c3ncc(Cl)cc3Br)ccc2F)CS1(=O)=O [Example 352, N-(3-((3R)-5-amino-3,6,6-trimethyl-1,1-dioxido-3,6-dihydro-2H-1,4-thiazin-3-yl)-4-fluorophenyl)-3-bromo-5-chloro-2-pyridinecarboxamide] | 0.0008 µM | 0.0009 µM | 410 µM
Cc1cc(Cl)ccc1C(=O)Nc1ccc(F)c([C@]2(C)CS(=O)(=O)C(C)(C)C(N)=N2)c1 [Example 353, N-(3-((3R)-5-amino-3,6,6-trimethyl-1,1-dioxido-3,6-dihydro-2H-1,4-thiazin-3-yl)-4-fluorophenyl)-4-chloro-2-methylbenzamide] | 0.00652 µM | 0.0166 µM | 708 µM
COc1ccc(C(=O)Nc2ccc(F)c([C@]3(C)CS(=O)(=O)C(C)(C)C(N)=N3)c2)c(F)c1 [Example 354, N-(3-((3R)-5-amino-3,6,6-trimethyl-1,1-dioxido-3,6-dihydro-2H-1,4-thiazin-3-yl)-4-fluorophenyl)-2-fluoro-4-methoxybenzamide] | 0.0424 µM | 0.0187 µM | 1330 µM
Cc1cc(C#N)cnc1C(=O)Nc1ccc(F)c([C@]2(C)CS(=O)(=O)C(C)(C)C(N)=N2)c1 [Example 355, N-(3-((3R)-5-amino-3,6,6-trimethyl-1,1-dioxido-3,6-dihydro-2H-1,4-thiazin-3-yl)-4-fluorophenyl)-5-cyano-3-methyl-2-pyridinecarboxamide] | 0.0003 µM | 0.0005 µM | 283 µM
